These are literature values, as cited in PMC3262105 (Journal of the American Chemical Society, 2012).

The test system of data set [1] is cervical cells. As to conditions: concentration 10 times the IC50 for efficacy.
Data set [2] relates to SEVI- and semen-mediated enhancement of HIV infection in T cells.
The test system of data set [3] is cervical cells. As to conditions: concentration 10 times the IC50 for efficacy. This is another data set of the same source.

`Cc1ccc2nc(-c3ccc(NCCOCCOCCOCCOCCOCCO)cc3)sc2c1` [BTA-EG6]: the pro-inflammatory activity result in data set [1] is reported as “did not exhibit any pro-inflammatory activity”. Also, the “concentration required to nearly completely neutralize the effects of SEVI on HIV-1 infection” value in data set [2] is 44 µM. Further, the IC50 (usually the point on the concentration scale where inhibition reaches its midpoint) in data set [2] (read-out: IC50 for reducing SEVI-enhanced infection of HIV, T cells) was 13 µM. For the same molecule, in data set [3], the “toxicity to cervical cells” value is listed as “not toxic”.
